{"source": "patent US4415577A", "about": "“Bis-sparteine derivatives and method of using same in therapy” (Kali-Chemie Pharma GmbH, priority 1980, dated 1983)", "key": {"isolated left atria": {"system": "isolated left atria", "test": "prolongation of the functional refractory period (FRP), double stimulus method of Govier", "design": "species or system guinea pig (female albino-pirbright-white)", "settings": "Cavia porcellus, 0.3 h; isolated left atria of female guinea pigs, 18 minutes after application; read-out: FRP 125% (concentration causing prolongation of the functional refractory period to 125%)"}, "[1]": {"system": "aconitin-induced arrhythmic effects", "test": "aconitin-induced arrhythmia test (Aconitine test), oral", "assay_type": "in vivo, rat (male Wistar)", "settings": "for minimal effective dose: Rattus norvegicus, po, 3 h, read-out: Aconitine test, effective dose per os", "description": "The influence of the novel compound on aconitin-induced arrhythmic effects is determined on male Wistar rats (weighing 280-350 g) which are treated with an aconitin infusion according to the method of Raschak (M. Raschak, Arzneim. Forschung (Drug Research) 25 (1975) pp. 639-641). The effective dose which is given in μmol/kg, is the dose which cause a significant difference in time between the starting of the aconitin-induced arrhythmic effect in animals treated with the active ingredient and the starting of this aconitin-induced effect in an untreated control group of animals. In order to be considered effective the dose must cause a significant prolongation of the period until the aconitin-induced arrhythmic effects start, and it must be effective against at least two of the aconitin-induced arrhythmic symptoms (extrasystoles, ventricular flutter, ventricular tachycardia). The test compound is applied orally inform of a 2% suspension of tylose ^R MH 50 three hours before the aconitin-infusion is started.\nAs a standard dose one tenth of the LD50 in mice is used. If a test compound is effective at this dose, the dose is reduced in a following test. The statistical t-test method according to Student using logarithmic values of the effective values is used for significance testing (see Lothar Sachs, Statistische Auswertungsmethoden, Springer Verlag 1969)."}, "[2]": {"test": "acute toxicity (LD50) in mice after oral administration", "assay_type": "in vivo, mouse (male NMRI)", "settings": "mouse, in vivo; male NMRI-mice, oral, 50% mortality on the 7th day; read-out: LD50 per os", "description": "(§1) The acute toxicity of the compounds is determined in male NMRI-mice (body weight range 18-22 g) after oral (p.o) administration. The LD50 is defined as that dose in μmol/kg which causes a 50% mortality rate of the test animals on the 7th day after application. The calculation of the LD50 is carried out by probitanalysis (see L. Cavalli-Sforza, Grundbegriffe der Biometric, Gustav Fischer Verlag Stuttgart (1964)."}, "male NMRI-mice": {"system": "male NMRI-mice", "test": "acute toxicity (LD50) in mice after oral administration", "assay_type": "in vivo, mouse (male NMRI)", "settings": "comparison in words", "description": "as §1"}}, "note": "Counter-ions that a name gives are not always drawn.", "data": [{"smiles": "C1CCN2C[C@@H]3C[C@@H]([C@@H]([C@@H]4[C@@H]5C[C@@H](CN6CCCC[C@H]56)[C@@H]5CCCCN45)N4CCCC[C@@H]34)[C@H]2C1", "note": "[17S,17'S-bissparteine ditartrate]", "values": [{"measurement": "EC (125%)", "setting": "isolated left atria", "value": 5, "unit": "µM"}, {"measurement": "minimal effective dose", "setting": "[1]", "value": 33, "unit": "µmol/kg"}, {"measurement": "LD50 at 168 h", "setting": "[2]", "value": "> 1900", "unit": "µmol/kg"}]}, {"smiles": "C1CCN2C[C@@H]3C[C@@H]([C@@H]([C@@H]4[C@@H]5C[C@@H](CN6CCCC[C@H]56)[C@@H]5CCCCN45)N4CCCC[C@@H]34)[C@H]2C1", "note": "[17S,17'S-bissparteine]", "values": [{"measurement": "effectiveness compared with the known tested sparteine compounds", "setting": "[1]; conclusion in words from table 1", "value": "more effective than the known tested sparteine compounds"}, {"measurement": "effect after oral application, after a period of 3 hours", "setting": "[1]; oral, after 3 hours, same conditions for known compounds", "value": "retains its good effect even after a period of 3 hours"}, {"measurement": "toxicity compared with known sparteine derivatives", "setting": "male NMRI-mice", "value": "less toxic"}]}, {"smiles": "CCCCCC1C2CC(CN3CCCCC23)C2CCCCN21", "note": "(stereo not drawn) [Pentyl sparteine tartrate]", "values": [{"measurement": "EC (125%)", "setting": "isolated left atria", "value": 9, "unit": "µM"}, {"measurement": "minimal effective dose", "setting": "[1]", "value": "> 180", "unit": "µmol/kg"}, {"measurement": "LD50 at 168 h", "setting": "[2]", "value": 1800, "unit": "µmol/kg"}]}, {"smiles": "C1CCN2C[C@@H]3C[C@@H](CN4CCCC[C@@H]34)[C@H]2C1", "note": "[Sparteine sulfate]", "values": [{"measurement": "EC (125%)", "setting": "isolated left atria", "value": 34, "unit": "µM"}, {"measurement": "minimal effective dose", "setting": "[1]", "value": "> 54", "unit": "µmol/kg"}, {"measurement": "LD50 at 168 h", "setting": "[2]", "value": 540, "unit": "µmol/kg"}]}]}
